# Activity calls are given as the source filed them. No cut-off for these calls is given here.
# Assays:
# [1] = Inhibition of FLAG or His-tagged HIV1 integrase 3' processing activity expressed in Escherichia coli BL21(DE3) using [32P]-labeled blunt ended 21-mer or recessed ended 19-mer double stranded U5 DNA as substrate preincubated for 30 mins followed by substrate addition measured after 1 hr by polyacrylamide gel electrophoresis; parameters: species or system Human immunodeficiency virus 1
# [2] = Inhibition of His-tagged LEDGF/p75 (unknown origin) dependent FLAG or His-tagged HIV1 integrase activity expressed in Escherichia coli BL21(DE3) using 32-mer blunt-ended U5 viral donor DNA and pBR322 target DNA preincubated for 5 mins followed by LEDGF/p75 addition measured after 90 mins by agarose gel electrophoresis
# [3] = Inhibition of HIV1 His-tagged integrase/His-tagged LEDGF/p75 (unknown origin) interaction expressed in Escherichia coli BL21(DE3) preincubated for 30 mins with viral integrase followed by LEDGF/p75 addition measured after 30 mins by HTRF assay
# [4] = test system: Human immunodeficiency virus 1; assay: Antiviral activity against VSV-g pseudotyped HIV1 infected in HEK293T cells incubated for 2 hrs prior to viral infection followed by compound wash out at 2 hrs post infection and subsequent compound readdition measured after 48 hrs by luciferase reporter gene assay; format: functional, cell-based; settings: HEK-293T
# [5] = Cytotoxicity against HEK293T cells assessed as reduction in cell viability; format: toxicity, cell-based; settings: human, hek-293t
Compound,IC50 [1],IC50 [2],IC50 [3],Activity [4],Activity [5]
O=C(O)c1cc(N(Cc2ccccc2)Cc2ccccc2)ccc1O,70 µM,7.93 µM,8.75 µM,–,–
Cc1ccccc1CN(Cc1ccccc1C)c1ccc(O)c(C(=O)O)c1,> 70 µM,14.7 µM,27.6 µM,–,–
O=C(O)c1cc(N(Cc2ccccc2F)Cc2ccccc2F)ccc1O,63.1 µM,9 µM,17.8 µM,–,–
O=C(O)c1cc(N(Cc2cccc(Cl)c2)Cc2cccc(Cl)c2)ccc1O,> 70 µM,13.5 µM,19.5 µM,–,–
O=C(O)c1cc(N(Cc2cccc(F)c2)Cc2cccc(F)c2)ccc1O,68.6 µM,18.5 µM,20.8 µM,–,–
O=C(O)c1cc(N(Cc2ccccc2Cl)Cc2ccccc2Cl)ccc1O,25.6 µM,3.78 µM,3.28 µM,Active,Toxic
